Structures can show the parent of a compound that is named as a salt.
assay: Human primary T-cell proliferation stimulated by IL-2 (CellTiter-Glo); type: cell-based; conditions: primary human T-cells, IL-2 stimulated proliferation, 72 hours, ATP readout; read-out: Activity (IC50, inhibition of JAK3 activity)
From the text: One means of assaying for such inhibition is detection of the effect of the 2,4-substituted pyrimidinediamine compounds on the upregulation of downstream gene products. For example, the activity of the disclosed compounds may be characterized by assaying the effect of the 2,4-substituted pyrimidinediamine compounds described herein on the proliferative response of primary human T-cells. In this assay, primary human T-cells derived from peripheral blood and pre-activated through stimulation of the T-cell receptor and CD28, proliferate in culture in response to the cytokine Interleukin-2 (IL-2). This proliferative response is dependent on the activation of JAK1 and JAK3 tyrosine kinases, which phosphorylate and activate the transcription factor Stat-5. The primary human T-cells are incubated with the 2,4-substituted pyrimidinediamine compounds in the presence of IL-2 for 72 hours and at the assay endpoint intracellular ATP concentrations are measured to assess cell viability. A reduction in cell proliferation compared to control conditions is indicative of inhibition of the JAK kinase pathway.
Primary human T-cells derived from peripheral blood and pre-activated through stimulation of the T-cell receptor and CD28, proliferate in vitro in response to the cytokine Interleukin-2 (IL-2). This proliferative response is dependent on the activation of JAK-1 and JAK-3 tyrosine kinases, which phosphorylate and activate the transcription factor Stat-5.
Human primary T-cells were prepared as follows. Whole blood was obtained from a healthy volunteer, mixed 1:1 with PBS, layered on to Ficoll Hypaque (Amersham Pharmacia Biotech, Piscataway, N.J., Catalog #17-1440-03) in 2:1 blood/PBS:ficoll ratio and centrifuged for 30 min at 4° C. at 1750 rpm. The lymphocytes at the serum: ficoll interface were recovered and washed twice with 5 volumes of PBS. The cells were resuspended in Yssel's medium (Gemini Bio-products, Woodland, Calif., Catalog #400-103) containing 40 U/mL recombinant IL2 (R and D Systems, Minneapolis, Minn., Catalog #202-IL (20 μg)) and seeded into a flask pre-coated with 1 μg/mL anti-CD3 (BD Pharmingen, San Diego, Calif., Catalog #555336) and 5 μg/mL anti-CD28 (Immunotech, Beckman Coulter of Brea Calif., Catalog #IM1376). The primary T-cells were stimulated for 3-4 days, then transferred to a fresh flask and maintained in RPMI with 10% FBS and 40 U/mL IL-2.
The day prior to the assay set up, primary T-cells were centrifuged and resuspended in fresh RPMI with 10% FBS but without IL-2 and starved overnight. For the assay, the primary T-cells were centrifuged and resuspended Yssel's medium at 2×10^6 cells/mL. 50 μL of cell suspension containing 80 U/mL IL-2 was added to each well of a flat bottom 96 well black plate. For the unstimulated control, IL-2 was omitted from the last column on the plate. Compounds were serially diluted in dimethyl sulfoxide (DMSO, 99.7% pure, cell culture tested, Sigma-Aldrich, St. Louis, Mo., Catalog No. D2650) from 5 mM in 3-fold dilutions, and then diluted 1:250 in Yssel's medium. 50 μL of 2× compound was added per well in duplicate and the cells were allowed to proliferate for 72 hours at 37° C.
Proliferation was measured using CellTiter-Glo® Luminescent Cell Viability Assay (Promega), which determines the number of viable cells in culture based on quantitation of the ATP present, as an indicator of metabolically active cells. The substrate was thawed and allowed to come to ambient temperature. After mixing the Cell Titer-Glo reagent and diluent together, 100 μL was added to each well. The plates were mixed on an orbital shaker for two minutes to induce lysis and incubated at ambient temperature for an additional ten minutes to allow the signal to equilibrate. Detection was performed using a Wallac Victor2 1420 multilabel counter purchased from Perkin Elmer, Shelton, Conn.

| Compound | IC50 |
| --- | --- |
| Cc1cnc(Nc2cc(C)c(C)c(C)c2)nc1Nc1ccc2oc(=O)[nH]c2c1 [Compound A1, N2-(3,4,5-trimethyl)phenyl-5-methyl-N4-(2-oxo-2,3-dihydro-1,3-benzoxazol-5-yl)-2,4-pyrimidinediamine] | < 0.5 µM |
| Cc1cnc(Nc2ccc(C(=O)Nc3ccccc3)cc2)nc1Nc1ccc2oc(=O)[nH]c2c1 [Compound A2, 4-[5-methyl-4-(2-oxo-2,3-dihydro-benzoxazol-5-ylamino)-pyrimidin-2-ylamino]-N-phenyl-benzamide] | < 0.5 µM |
| Cc1cnc(Nc2ccc(C(N)=O)cc2)nc1Nc1ccc2oc(=O)[nH]c2c1 [Compound A3, N4-(benzo[d]oxazol-2(3H)-on-5-yl)-N2-(4-aminocarbonylphenyl)-5-methylpyrimidine-2,4-diamine] | < 0.5 µM |
| Cc1cnc(Nc2ccc(C(=O)NC3CCC3)cc2)nc1Nc1ccc2oc(=O)[nH]c2c1 [Compound A5, N-cyclobutyl-4-[5-methyl-4-(2-oxo-2,3-dihydro-benzooxazol-5-ylamino)-pyrimidin-2-ylamino]-benzamide] | < 0.5 µM |
| Cc1cc(CF)cc(Nc2ncc(C)c(Nc3ccc4oc(=O)[nH]c4c3)n2)c1 [Compound A7, 5-(2-(3-(fluoromethyl)-5-methylphenylamino)-5-methylpyrimidin-4-ylamino)benzo[d]oxazol-2(3H)-one] | < 0.5 µM |
| Cc1ccc(Nc2ncc(C)c(Nc3ccc4oc(=O)[nH]c4c3)n2)cc1F [Compound A8, N2-(3-fluoro-4-methyl)phenyl-5-methyl-N4-(2-oxo-2,3-dihydro-1,3-benzoxazol-5-yl)-2,4-pyrimidinediamine] | < 0.5 µM |
| Cc1ccc(Nc2ncc(C)c(Nc3ccc4oc(=O)[nH]c4c3)n2)cc1C [Compound A10, 5-[2-(3,4-dimethyl-phenylamino)-5-methyl-pyrimidin-4-ylamino]-3H-benzooxazol-2-one] | < 0.5 µM |
| COc1cc(Nc2ncc(C)c(Nc3ccc4oc(=O)[nH]c4c3)n2)cc(Cl)c1OC [Compound A11, 5-(2-(3-chloro-4,5-dimethoxyphenylamino)-5-methylpyrimidin-4-ylamino)benzo[d]oxazol-2(3H)-one] | < 0.5 µM |
| Cc1cnc(Nc2ccc3cnoc3c2)nc1Nc1ccc2oc(=O)[nH]c2c1 [Compound A12, 5-(2-(benzo[d]isoxazol-6-ylamino)-5-methylpyrimidin-4-ylamino)benzo[d]oxazol-2(3H)-one] | < 0.5 µM |
| Cc1cnc(Nc2cc(C)c(F)c(C)c2)nc1Nc1ccc2oc(=O)[nH]c2c1 [Compound A14, N2-(3,5-dimethyl-4-fluoro)phenyl-5-methyl-N4-(2-oxo-2,3-dihydro-1,3-benzoxazol-5-yl)-2,4-pyrimidinediamine] | < 0.5 µM |
| COc1cc(Nc2ncc(C)c(Nc3ccc4oc(=O)n(COP(=O)(O)O)c4c3)n2)cc(C(F)(F)F)c1 [Compound A15, N2-(3-methoxy-5-trifluoromethyl)phenyl-5-methyl-N4-[3-(phosphonooxy)methyl-2-oxo-2,3-dihydro-1,3-benzoxazol-5-yl]-2,4-pyrimidinediamine bis-sodium salt] | 0.5 to 5 µM |
| COc1cc(Nc2ncc(C)c(Nc3ccc4oc(=O)n(COP(=O)(O)O)c4c3)n2)cc(C)c1F [Compound A16, Sodium (5-(2-(4-fluoro-3-methoxy-5-methylphenylamino)-5-methylpyrimidin-4-ylamino)-2-oxobenzo[d]oxazol-3(2H)-yl)methyl phosphate] | 0.5 to 5 µM |
| Cc1cnc(Nc2cc(C)c(C)c(C)c2)nc1Nc1ccc2oc(=O)n(COP(=O)(O)O)c2c1 [Compound A17, 5-methyl-N4-[3-(phosphonooxy)methyl-2-oxo-2,3-dihydro-1,3-benzoxazol-5-yl]-N2-(3,4,5-trimethyl)phenyl-2,4-pyrimidinediamine bis-sodium salt] | 0.5 to 5 µM |
| Cc1cnc(Nc2cc(C)c(F)c(C)c2)nc1Nc1ccc2oc(=O)n(COP(=O)(O)O)c2c1 [Compound A18, N2-(3,5-dimethyl-4-fluoro)phenyl-5-methyl-N4-[3-(phosphonooxy)methyl-2-oxo-2,3-dihydro-1,3-benzoxazol-5-yl]-2,4-pyrimidinediamine bis-sodium salt] | 0.5 to 5 µM |
| COc1cc(Nc2ncc(C)c(Nc3ccc4oc(=O)[nH]c4c3)n2)cc(C)c1F [Compound I-432, 5-(2-(4-fluoro-3-methoxy-5-methylphenylamino)-5-methylpyrimidin-4-ylamino)benzo[d]oxazol-2(3H)-one] | < 0.5 µM |
